IC50 data for 49 compounds are collected here from US11286268B1, “EIF4E-inhibiting compounds and methods” (EFFECTOR THERAPEUTICS, INC., priority 2019, dated 2022).

In this assay the target is recombinant eIF4E (Homo sapiens (Human), UniProt P06730). The experiment in a line: Fluorescence polarization competition assay for eIF4E binding potency. Summed up:
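FP readout; IC50 fit from 8-point, 3-fold series. 75 nM eIF4E + 20 nM ATTO-550-labelled m7GDP probe, Tris pH 7.5/NaCl/DTT/Tween buffer, 1% DMSO final. 30 min RT equilibration, light-protected.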

The mark [1] stands for this setting: fluorescence polarization competition, 75 nM recombinant eIF4E, 20 nM EDA-m7GDP-ATTO-550, IC50 class, read-out: elF4E FP.
Where [2] appears, read: inhibition of eIF4E/EDA-m7GDP-ATTO-550 binding by 50%, Table 4B calculated values, read-out: IC50.
[3] abbreviates: inhibition of eIF4E/EDA-m7GDP-ATTO-550 binding, calculated IC50 values, Table 4B, read-out: IC50.

Like-named read-outs stand apart in the source and are kept apart here.

Chain of recombinant eIF4E (P06730 whole entry): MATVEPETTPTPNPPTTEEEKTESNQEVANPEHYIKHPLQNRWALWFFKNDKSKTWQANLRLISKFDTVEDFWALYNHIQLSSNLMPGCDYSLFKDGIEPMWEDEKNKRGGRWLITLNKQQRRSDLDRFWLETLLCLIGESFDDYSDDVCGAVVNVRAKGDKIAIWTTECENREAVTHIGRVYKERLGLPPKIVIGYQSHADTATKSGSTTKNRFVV

As for `Cc1cc(-c2cc(Cl)ccc2OCCn2c(C)nc3cnc(N)c(C#N)c3c2=O)c2scc(C(=O)O)c2n1` [compound 1072], the IC50 is below 50 nM under setting [1] and 37.2 nM under setting [2]. For `COc1ncc(-c2cc(Cl)ccc2OCCn2cnc3cnc(C#N)cc3c2=O)nc1C(=O)O` [compound 90], the IC50 by setting is: under setting [1], above 1000 nM; under setting [2], 1230 nM. `N#Cc1cc(C(F)(F)F)cc2nc(Cl)n(CCOc3ccc(Cl)cc3-c3cccc(C(=O)O)c3)c(=O)c12` [compound 187]: the IC50 by setting is: under setting [1], below 50 nM; under setting [2], 48.3 nM. For `Cc1cc(-c2cc(Cl)ccc2OCCn2c(C)nc3cc(C(F)(F)F)c(Br)c(C#N)c3c2=O)c2scc(C(=O)O)c2n1` [compound 876], the IC50 reads like this: under setting [1], 50 to 1000 nM; under setting [2], 73.3 nM. `CCc1nc2cnccc2c(=O)n1CCOc1ccc(Cl)cc1-c1cccc(C(=O)O)c1` [compound 70]: the IC50 by setting is: under setting [1], 50 to 1000 nM; under setting [2], 432 nM. The corresponding values for `Cc1nc2cc(C(F)(F)F)c(N3CCN(CC(F)F)CC3)c(C#N)c2c(=O)n1CCOc1ccc(Cl)cc1-c1cccc(C(=O)O)c1` [compound 377] are 50 to 1000 nM and 61.2 nM. With `Cc1cc(-c2cc(Cl)ccc2OCCn2c(C)nc3c(F)cc(C(F)F)c(C#N)c3c2=O)c2cccc(C(=O)O)c2n1` [compound 490], the IC50 under setting [1] was in the range of 50 to 1000 nM. For `N#Cc1cccc2nc(C(F)F)n(CCOc3ccc(Cl)cc3-c3cccc(C(=O)O)c3)c(=O)c12` [compound 1986], the IC50 under setting [3] was 78.5 nM.

In the case of `Cc1nc2cnc(N3CCN(C(C)CF)CC3)c(C#N)c2c(=O)n1CCOc1ccc(Cl)cc1-c1ccnc2c(C(=O)O)csc12` (stereo not shown) [compound 1424], the IC50 under setting [3] was 29.2 nM. On the same count and under the same terms, in the case of `CCc1cc(-c2cc(Cl)ccc2OCCn2c(C)nc3cc(C(F)(F)F)c(CC4CCN(C)CC4)c(C#N)c3c2=O)c2scc(C(=O)O)c2n1` [compound 1275] it was 58.7 nM. For `Cc1cc(-c2ncc3nc(C)n(CCOc4ccc(Cl)cc4-c4ccc(C)c5c(C(=O)O)csc45)c(=O)c3c2C#N)ccn1` [compound 763], the IC50 was below 50 nM under setting [1] and 5.19 nM under setting [2].

Take `Cc1nc2cnc(N(C)C3CCN(CC(F)(F)C(F)(F)F)CC3)c(C#N)c2c(=O)n1CC#Cc1ccc(Cl)cc1-c1ccnc2c(C(=O)O)csc12` [compound 1119]: the IC50 was below 50 nM under setting [1] and 14.6 nM under setting [2]. For `Cc1nc2cncc(C#N)c2c(=O)n1CCOc1ccc(Cl)cc1-c1cccc(P(=O)(O)O)c1` [150FA], under setting [2], the IC50 is 63.1 nM. Regarding `Cc1nc2cnc(N(C)C3CCN(C(C)C(F)F)CC3)c(C#N)c2c(=O)n1CC#Cc1ccc(Cl)cc1-c1ccnc2c(C(=O)O)csc12` (stereo not shown) [compound 1518], under setting [3], the IC50 is 10.7 nM.

On to `Cc1nc2cnc(N(C)C3CCN(CC(C)(F)F)CC3)c(C#N)c2c(=O)n1CC#Cc1ccc(Cl)cc1-c1ccnc2c(C(=O)NS(=O)(=O)c3ccc(C(F)(F)F)nc3)csc12` [compound 1674], for which the IC50 under setting [3] is 6.5 nM. On to `Cc1nc2cnc(N(C)CCCN(C)CC(F)(F)F)c(C#N)c2c(=O)n1CC#Cc1ccc(Cl)cc1-c1ccnc2c(C(=O)O)csc12` [compound 1497], for which the IC50 under setting [3] is 12.9 nM. Turning to `Cc1nc2cnc(N(C)c3ccncc3)c(C#N)c2c(=O)n1CC#Cc1ccc(Cl)cc1-c1ccnc2c(C(=O)O)csc12` [compound 1569], the IC50 under setting [3] was 19.5 nM. As to `COc1cc(-c2cc(Cl)ccc2OCCn2cnc3cnc(C#N)cc3c2=O)cc(C(=O)O)c1OC` [compound 107], the IC50 reads like this: under setting [1], above 1000 nM; under setting [2], 3820 nM. As for `Cc1nc2cnc(N(C)C3CCN(C4CC(F)(F)C4)CC3)c(C#N)c2c(=O)n1CC#Cc1ccc(Cl)cc1-c1ccnc2c(C(=O)NS(=O)(=O)c3cccnc3)csc12` [compound 1831], the IC50 under setting [3] is 5 nM. Take `Cc1nc2cc(C(F)(F)F)cc(C#N)c2c(=O)n1CCOc1ccc(Cl)cc1-c1cccc2c1S(=O)(=O)C=C2C(=O)O` [compound 327]: the IC50 by setting is: under setting [1], below 50 nM; under setting [2], 43.7 nM. On to `Cc1cc(-c2cc(Cl)ccc2OCCn2c(C)nc3ccc(N4CCN(C)CC4)cc3c2=O)c2scc(C(=O)O)c2n1` [compound 811], for which the IC50 under setting [1] lay in the range of 50 to 1000 nM. As to `Cc1nc2cnc(N(C)C3CCN(C)CC3)c(C#N)c2c(=O)n1CCOc1ccc(Cl)cc1-c1ccnc2c(C(=O)O)csc12` [compound 854], the IC50 was below 50 nM under setting [1] and 11.9 nM under setting [2].

Turning to `Cc1cc(-c2cc(Cl)ccc2OCCn2c(C)nc3c(C)nc(-c4cc(F)cnc4C)c(C#N)c3c2=O)c2scc(C(=O)O)c2n1` [compound 441], the IC50 runs as follows: under setting [1], below 50 nM; under setting [2], 20.4 nM. With `Cc1nc2ccc(CN(C)C)c(C#N)c2c(=O)n1CCOc1ccc(Cl)cc1-c1ccnc2c(C(=O)O)csc12` [compound 1936], the IC50 under setting [3] was 37.4 nM. As for `Cc1nc2cnc(N3CCN(C(C)C(F)F)CC3)c(C#N)c2c(=O)n1CC#Cc1ccc(Cl)cc1-c1ccnc2c(C(=O)O)csc12` (stereo not shown) [compound 1466], the IC50 under setting [3] was 17.9 nM. Consider `O=C(O)c1cccc(-c2cc(Cl)ccc2OCCn2cnc3ccncc3c2=O)c1` [compound 13], for which the IC50 was above 1000 nM under setting [1] and 1070 nM under setting [2]. For the compound `Cc1cc(-c2c(C(F)(F)F)cc3nc(C)n(CCOc4ccc(Cl)cc4-c4cc(C)nc5c(C(=O)O)csc45)c(=O)c3c2C#N)nc(C)n1` [compound 963], the IC50 reads like this: under setting [1], below 50 nM; under setting [2], 7.84 nM. As for `Cc1cc(-c2cc(Cl)ccc2OCCn2c(C)nc3cnc(N4CCN(C)CC4)cc3c2=O)c2scc(C(=O)O)c2n1` [compound 810], under setting [1], the IC50 was below 50 nM. In the case of `Cc1cc(-c2cc(Cl)ccc2OCCn2c(C)nc3cnc(N4CC(OCC(F)(F)F)C4)c(C#N)c3c2=O)c2scc(C(=O)O)c2n1` [compound 1044], the IC50 under setting [1] is below 50 nM and the IC50 under setting [2] is 5.31 nM. Regarding `Cc1nc2cc(C(F)(F)F)cc(C#N)c2c(=O)n1CCOc1cnc(C#N)cc1-c1ccnc2c(C(=O)O)csc12` [compound 291], the IC50 runs as follows: under setting [1], 50 to 1000 nM; under setting [2], 99.5 nM. For `Cc1cc(-c2cc(Cl)ccc2OCCn2c(C)nc3cc(Cl)c(N4CC(C(F)(F)F)C4)c(C#N)c3c2=O)c2scc(C(=O)O)c2n1` [compound 689], the IC50 under setting [1] was below 50 nM and the IC50 under setting [2] is 11.5 nM. On to `Cc1nc2cncc(C#N)c2c(=O)n1CCOc1ccc(Cl)cc1-c1cccc(P(=O)(O)OC(C)C)c1` [150FB], for which, under setting [2], the IC50 was 143 nM.

Turning to `CCOP(=O)(OCC)c1csc2c(-c3cc(Cl)ccc3OCCn3c(C)nc4cc(C(F)(F)F)c(N5CCN(C6CC6)CC5)c(C#N)c4c3=O)ccnc12` [compound 1614], the IC50 under setting [3] was 31.4 nM. Still for that read-out and setting: next, `Cc1nc2cnc(N3CCN(C(C)C)CC3)c(C#N)c2c(=O)n1CC#Cc1ccc(Cl)cc1-c1ccnc2c(C(=O)O)csc12` [compound 1637]: 17.7 nM; `COC(=O)c1csc2c(-c3cc(Cl)ccc3OCCn3c(C)nc4cnc(N(C)C5CCN(CC(F)(F)F)CC5)c(C#N)c4c3=O)ccnc12` [compound 1620]: 17.9 nM. On to `Cc1nc2cnc(C#CC3CCCN3C3CC3)c(C#N)c2c(=O)n1CCOc1ccc(Cl)cc1-c1ccnc2c(C(=O)O)csc12` (stereo not shown) [compound 1344], for which, under setting [3], the IC50 is 18.3 nM.

Take `Cc1cc(-c2cc(Cl)ccc2OCCn2c(C)nc3cc(S(C)(=O)=O)c(N4CCN(C)CC4)cc3c2=O)c2scc(C(=O)O)c2n1` [compound 1209]: the IC50 is, setting by setting: under setting [1], 50 to 1000 nM; under setting [3], 98 nM. On to `Cc1nc2cc(C(F)(F)F)cc(C#N)c2c(=O)n1CCOc1ccc(Cl)cc1-c1ccnc(-c2nnn[nH]2)c1` [compound 662], for which the IC50 was 50 to 1000 nM under setting [1] and 144 nM under setting [2].

Consider `C#Cc1nc2c(=O)n(CCOc3ccc(Cl)cc3-c3cc(C)nc4c(C(=O)O)csc34)c(C)nc2cc1C(F)(F)F` [compound 783], for which the IC50 by setting is: under setting [1], below 50 nM; under setting [2], 14.8 nM. As to `Cc1nc2cnc(N(C)C3CCN(C4CC(F)(F)C4)CC3)c(C#N)c2c(=O)n1CC#Cc1ccc(Cl)cc1-c1ccnc2c(C(=O)NS(=O)(=O)Cc3ccccn3)csc12` [compound 1832], the IC50 under setting [3] is 20.5 nM. Regarding `CCCc1cc(-c2cc(Cl)ccc2OCCn2c(C)nc3cnc(C4CC4)c(C#N)c3c2=O)c2scc(C(=O)O)c2n1` [compound 1076], the IC50 was below 50 nM under setting [1] and 24.5 nM under setting [2]. For the compound `Cc1cc(-c2cc(Cl)ccc2OCCn2c(C)nc3cc(C(F)(F)F)c(C(C)N(C)C)c(C#N)c3c2=O)c2scc(C(=O)O)c2n1` (stereo not shown) [compound 711], the IC50 is 50 to 1000 nM under setting [1] and 77.5 nM under setting [2].

As for `O=C(O)c1cccc(-c2cc(Cl)ccc2OCCn2c(C(F)F)nc3cccc(Br)c3c2=O)c1` [compound 2009], the IC50 under setting [3] was 2150 nM. In the case of `Cc1nc2cnc(N(C)[C@H]3CC[C@H](N(CC(F)F)C(C)CO)CC3)c(C#N)c2c(=O)n1CC#Cc1ccc(Cl)cc1-c1ccnc2c(C(=O)O)csc12` (stereo partly shown) [compound 1579], under setting [3], the IC50 was 30.3 nM.

With `Cc1cc(-c2cc(Cl)ccc2OCCn2c(C)nc3c(C4CC4)ncc(Cl)c3c2=O)c2scc(C(=O)O)c2n1` [compound 1963], the IC50 under setting [3] is 241 nM. Same read-out and setting: in the case of `Cc1cc(-c2cc(Cl)ccc2OCCn2c(C)nc3cc(C(F)(F)F)c(-c4ccc(F)cn4)c(C#N)c3c2=O)c2scc(C(=O)O)c2n1` [compound 1381] it was 7.96 nM; in that of `Cc1nc2cnc(N(C)C3CCN(CC(F)(F)F)CC3)c(C#N)c2c(=O)n1CC#Cc1ccc(Cl)cc1-c1ccnc2c(C(=O)NS(=O)(=O)CC(F)F)csc12` [compound 1539], 12.5 nM.

Consider `N#Cc1ccc2ncn(CCOc3ccc(Cl)cc3-c3cccc(C(=O)O)c3)c(=O)c2c1C#N` [compound 27], for which the IC50 reads like this: under setting [1], 50 to 1000 nM; under setting [2], 149 nM.

Consider `Cc1cc(-c2cc(Cl)ccc2OCCn2c(C)nc3cnc(Cl)c(C#N)c3c2=O)c2scc(C(=O)O)c2n1` [compound 792], for which the IC50 runs as follows: under setting [1], below 50 nM; under setting [2], 2.44 nM.
